This is an account of results in US20250361281A1, “AMYLIN RECEPTOR (hAMY3R) AGONISTS WITH IMPROVED CHEMICAL STABILITY” (GUBRA A/S, priority 2022, published 2025).

Starred links: 1 amine or outer side, 2 acyl side, 3 side chain; linkers in the order of their positions; H or OH if unused. Positions of bridges follow the written chain, without caps; N, C: chain ends. Non-standard residues stand in square brackets, D forms with d. Residues, ends and D or L forms follow the SMILES beside them. No end group written: not given here. *: point of attachment. C20 diacid = O=C(O)CCCCCCCCCCCCCCCCCCC(=O)*; γGlu = O=C(O)[C@H](CCC(=O)[*:2])N[*:1]; Hyp = O=C(O)[C@@H]1C[C@@H](O)CN1 Bounds are passed on as bounds.

The conditions of data set [1]: cited from earlier work; for fibrillation at pH 7: pH 7, background statement.
The nature of data set [2]: Physical stability of peptide analogues (Thioflavin T fibrillation). Type of data set: physicochemical. To be noted: ThT fluorescence, 40° C., shaking, four days; pH 4 or pH 7 buffer. Here is the method: General Protocols for Determination of Physical Stability of Peptide Analogues
Peptides were dissolved in buffers (50 mM sodium acetate at pH 4 or 50 mM sodium phosphate at pH 7) and incubated for one hour. The samples were then divided into two replicates of 80 μl in a black 384 well plate (μ-clear, Greiner Bio-One) and mixed with Thioflavin T (ThT) to a final concentration of 4 μM. The plate was sealed and placed in a plate reader (CLARIOstar, BMG) where the temperature was set at 40° C. during the course of the experiment. The samples were further stressed by shaking the plate at 700 rpm (linear) for five minutes before every measurement. The fluorescence was measured every 10 min for four days by exciting the ThT at 450 nm and measuring the emission at 480 nm. For each peptide, the ThT signal over time was smoothened using Local Polynomial Regression fitting (LOESS) as implemented in the statistical programming environment R. For the smoothened data, the maximum ThT signal was normalized in percent between the maximum ThT signal for hAMY and the buffer background.

Data set [3] addresses T1, hAMY3 receptor (Homo sapiens, UniProt O60896+P30988).
T1 construct: monoclonal sub-clone
T1 sequence (P30988 25-474): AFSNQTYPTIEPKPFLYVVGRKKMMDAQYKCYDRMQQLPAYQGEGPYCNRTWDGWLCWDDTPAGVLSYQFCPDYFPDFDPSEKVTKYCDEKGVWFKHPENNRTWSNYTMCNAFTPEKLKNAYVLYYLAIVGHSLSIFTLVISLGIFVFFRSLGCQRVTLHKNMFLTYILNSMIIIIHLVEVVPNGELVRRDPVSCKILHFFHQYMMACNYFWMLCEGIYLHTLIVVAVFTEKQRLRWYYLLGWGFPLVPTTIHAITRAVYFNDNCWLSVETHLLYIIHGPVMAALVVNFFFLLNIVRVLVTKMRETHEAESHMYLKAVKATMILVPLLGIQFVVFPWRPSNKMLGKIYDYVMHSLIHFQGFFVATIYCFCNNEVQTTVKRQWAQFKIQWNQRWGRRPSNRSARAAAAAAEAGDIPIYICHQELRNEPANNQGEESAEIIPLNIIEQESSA
T1 sequence (O60896 24-148 partner): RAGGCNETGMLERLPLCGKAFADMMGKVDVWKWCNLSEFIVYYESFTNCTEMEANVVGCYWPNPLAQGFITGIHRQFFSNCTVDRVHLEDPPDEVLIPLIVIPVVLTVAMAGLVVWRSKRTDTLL
To be noted: previously shown (WO 2022/063925 A1); read-out: hAMY3R EC50; cited from earlier work.

The nature of data set [4]: Determination of deamidation and isomerization (LC-MS). To be noted: 50 mM phosphate buffer pH 7, 40° C., up to 28 days. Type of data set: physicochemical. Here is the method:
General Protocol for Determination of Deamidation and Isomerization
Peptides were dissolved in 50 mM phosphate buffer (pH 7) and incubated at 40° C. for up to 28 days. The samples were then analysed on a Exploris120 mass spectrometer coupled to a Vanquish Tandem UPLC (both Thermo Fisher) equipped with an Acquity BEH C18 column (1.7 um, 2.1×50 mm, 130A, Waters). Peptides were eluted using a linear gradient starting at 5% over 7.5 min to 70% buffer B at a flow rate of 0.4 mL/min (buffer B=100% acetonitrile with 0.1% formic acid; buffer A=100% water with 0.1% formic acid). Data were acquired in data-dependent acquisition mode at a MS1 resolution of 60.000, and a MS2 resolution of 30.000 in positive mode (Top4). Peptides were fragmented with a normalized collision energy of 25%. Deamidation and isomerization were quantified using area under the curve integration.

In data set [5] the target is T2, hAM1 receptor (Homo sapiens, UniProt O60895+Q16602).
T2 construct: monoclonal sub-clone
To be noted: previously shown (WO 2022/063925 A1); read-out: hAM1R EC50; cited from earlier work.

The nature of data set [6]: Determination of dimer and HMWP formation (size exclusion chromatography). Type of data set: physicochemical. To be noted: 50 mM phosphate buffer pH 7, 40° C., up to 28 days. Here is the method: General Protocol for Determination of Dimer and HMWP Formation
Peptides were dissolved in 50 mM phosphate buffer (pH 7) and incubated at 40° C. for up to 28 days. The samples were then analysed using size exclusion chromatography analysis to quantify the amount of High Molecular Weight Products (HMWP), which is an overall term for covalently linked peptide dimers, trimers, and higher order multimers. Analyses were carried out on a Dionex Ultimate 3000 RS UHPLC Focused chromatography system (Thermo Scientific) equipped with a Acquity Protein BEH SEC 1.7 μm 4.6×300 mm 125 Å column (Waters part no 186006506). The solvent system consisted of two mobile phases that are assumed to break all non-covalent interactions between peptides leaving only monomeric peptide and covalent HMWP to be analysed. • Mobile phase A (all v/v %): 95% H2O, 5% MeCN (Acetonitrile), 0.1% TFA (Trifluoroacetic acid) • Mobile phase B (all v/v %): 95% MeCN, 5% H2O, 0.1% TFA
The typically load was 1 μl of 1.0 mg/ml, and the detection signal at 215 nm should optimally be between 0.1 and 1.5 abs units. Isocratic elution was done with 60% mobile phase B and a flow of 0.3 ml/min in 20 minutes. Chromatograms were integrated as HMWP (all peaks in front of the main peak) The amount of the various species was reported as area relative to total area in percentage.

Data set [7] concerns the target T3, human amylin receptor 3 (hAMY3R) (human, UniProt P30988 25-474; O60896 24-148).
T3 sequence (looked up) 1: T1 sequence (P30988 25-474)
T3 sequence (looked up) 2: T1 sequence (O60896 24-148 partner)
The data set is described as follows: cell-based or functional assay.

The target in data set [8] is human adrenomedullin receptor 1 (hAM1R) (human, UniProt Q16602 23-461; O60895 43-175). The data set is described as follows: cell-based or functional assay.
human adrenomedullin receptor 1 (hAM1R), sequence (Q16602 23-461, chain 1 of 2): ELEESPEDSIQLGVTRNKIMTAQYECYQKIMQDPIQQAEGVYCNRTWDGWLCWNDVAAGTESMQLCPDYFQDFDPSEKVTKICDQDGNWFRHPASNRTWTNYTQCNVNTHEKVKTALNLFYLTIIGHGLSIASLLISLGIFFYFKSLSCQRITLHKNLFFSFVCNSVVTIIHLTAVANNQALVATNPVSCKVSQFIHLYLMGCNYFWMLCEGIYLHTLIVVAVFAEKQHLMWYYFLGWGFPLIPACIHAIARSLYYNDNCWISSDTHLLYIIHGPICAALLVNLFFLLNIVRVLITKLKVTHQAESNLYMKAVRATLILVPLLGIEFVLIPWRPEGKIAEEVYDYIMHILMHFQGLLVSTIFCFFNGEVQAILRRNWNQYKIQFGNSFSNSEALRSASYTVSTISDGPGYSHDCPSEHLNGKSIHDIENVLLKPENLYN
human adrenomedullin receptor 1 (hAM1R), sequence (O60895 43-175, chain 2 of 2): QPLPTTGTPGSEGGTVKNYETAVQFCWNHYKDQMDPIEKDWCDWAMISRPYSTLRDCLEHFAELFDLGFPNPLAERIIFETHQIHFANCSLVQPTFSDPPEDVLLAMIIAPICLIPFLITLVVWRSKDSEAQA

T2 sequence (Q16602 23-461): as the sequence (Q16602 23-461, chain 1 of 2) above
T2 sequence (O60895 43-175 partner): as the sequence (O60895 43-175, chain 2 of 2) above

As to `CC[C@H](C)[C@H](NC(=O)[C@@H]1CCCN1C(=O)CNC(=O)[C@H](Cc1ccccc1)NC(=O)[C@H](CC(N)=O)NC(=O)[C@H](CC(N)=O)NC(=O)[C@H](CO)NC(=O)[C@H](CO)NC(=O)[C@H](Cc1c[nH]cn1)NC(=O)[C@@H](NC(=O)[C@H](CC(C)C)NC(=O)[C@H](Cc1ccccc1)NC(=O)[C@H](CC(N)=O)NC(=O)[C@H](C)NC(=O)[C@H](CC(C)C)NC(=O)[C@H](CCCNC(=N)N)NC(=O)[C@H](CCC(N)=O)NC(=O)[C@@H](NC(=O)[C@H](C)NC(=O)[C@@H]1CSSC[C@H](NC(=O)[C@@H](N)CCCCN)C(=O)N[C@@H](CC(N)=O)C(=O)N[C@@H]([C@@H](C)O)C(=O)N[C@@H](C)C(=O)N[C@@H]([C@@H](C)O)C(=O)N1)[C@@H](C)O)C(C)C)C(=O)N[C@@H](CC(C)C)C(=O)N1CCC[C@H]1C(=O)N1CCC[C@H]1C(=O)N[C@H](C(=O)N[C@@H](CC(N)=O)C(=O)N[C@H](C(=O)NCC(=O)N[C@@H](CO)C(=O)N[C@@H](CC(N)=O)C(=O)N[C@H](C(=O)N[C@@H](Cc1ccc(O)cc1)C(N)=O)[C@@H](C)O)C(C)C)[C@@H](C)O` [Pramlintide], the “fibrillation at pH 7” value in data set [1] is “fibrillates”.
In the case of `CC[C@H](C)[C@H](NC(=O)[C@H](CCC(N)=O)NC(=O)[C@H](Cc1c[nH]cn1)NC(=O)[C@H](C)NC(=O)[C@H](CC(C)C)NC(=O)[C@H](CCCCN)NC(=O)[C@H](CCC(N)=O)NC(=O)[C@@H](NC(=O)[C@@H](NC(=O)[C@@H]1CSSC[C@H](NC(=O)CN)C(=O)N[C@@H](CCCNC(=N)N)C(=O)N[C@@H](Cc2ccccc2)C(=O)NCC(=O)N[C@@H]([C@@H](C)O)C(=O)N1)[C@@H](C)O)C(C)C)C(=O)N[C@@H](Cc1ccc(O)cc1)C(=O)N[C@@H](CCC(N)=O)C(=O)N[C@@H](Cc1ccccc1)C(=O)N[C@H](C(=O)N[C@@H](CC(=O)O)C(=O)N[C@@H](CCCCN)C(=O)N[C@@H](CC(=O)O)C(=O)N[C@@H](CCCCN)C(=O)N[C@@H](CC(=O)O)C(=O)N[C@@H](CC(N)=O)C(=O)N[C@H](C(=O)N[C@@H](C)C(=O)N1CCC[C@H]1C(=O)N[C@@H](CCCNC(=N)N)C(=O)N[C@@H](CO)C(=O)N[C@@H](CCCCN)C(=O)N[C@H](C(=O)N[C@@H](CO)C(=O)N1CCC[C@H]1C(=O)N[C@@H](CCC(N)=O)C(=O)NCC(=O)N[C@@H](Cc1ccc(O)cc1)C(N)=O)[C@@H](C)CC)C(C)C)[C@@H](C)O` [SEQ ID NO: 1], the “fibrillation at pH 7” value in data set [1] is “does not fibrillate”. Further, in data set [2], the Fibril formation result is on record as “No”.
On to `CC[C@H](C)[C@H](NC(=O)[C@H](C)NC(=O)CNC(=O)[C@H](Cc1ccccc1)NC(=O)[C@H](CC(N)=O)NC(=O)[C@H](CC(N)=O)NC(=O)[C@H](CO)NC(=O)[C@H](CO)NC(=O)[C@H](Cc1c[nH]cn1)NC(=O)[C@@H](NC(=O)[C@H](CC(C)C)NC(=O)[C@H](Cc1ccccc1)NC(=O)[C@H](CC(N)=O)NC(=O)[C@H](C)NC(=O)[C@H](CC(C)C)NC(=O)[C@H](CCCNC(=N)N)NC(=O)[C@H](CCC(N)=O)NC(=O)[C@@H](NC(=O)[C@H](C)NC(=O)[C@@H]1CSSC[C@H](NC(=O)[C@@H](N)CCCCN)C(=O)N[C@@H](CC(N)=O)C(=O)N[C@@H]([C@@H](C)O)C(=O)N[C@@H](C)C(=O)N[C@@H]([C@@H](C)O)C(=O)N1)[C@@H](C)O)C(C)C)C(=O)N[C@@H](CC(C)C)C(=O)N[C@@H](CO)C(=O)N[C@@H](CO)C(=O)N[C@H](C(=O)N[C@@H](CC(N)=O)C(=O)N[C@H](C(=O)NCC(=O)N[C@@H](CO)C(=O)N[C@@H](CC(N)=O)C(=O)N[C@H](C(=O)N[C@@H](Cc1ccc(O)cc1)C(N)=O)[C@@H](C)O)C(C)C)[C@@H](C)O` [SEQ ID NO: 2], for which the Fibril formation entry in data set [2] was “Yes”.
Turning to `CC[C@H](C)[C@H](NC(=O)[C@H](CCC(N)=O)NC(=O)[C@H](CCC(=O)O)NC(=O)[C@H](C)NC(=O)[C@H](CC(C)C)NC(=O)[C@H](CCCNC(=N)N)NC(=O)[C@H](CCC(N)=O)NC(=O)[C@@H](NC(=O)[C@@H](NC(=O)[C@@H]1CSSC[C@H](NC(=O)[C@H](CCCCN)NC(=O)CC[C@H](NC(=O)CCCCCCCCCCCCCCCCCCC(=O)O)C(=O)O)C(=O)N[C@@H](CC(N)=O)C(=O)N[C@@H]([C@@H](C)O)C(=O)N[C@@H](C)C(=O)N[C@@H]([C@@H](C)O)C(=O)N1)[C@@H](C)O)C(C)C)C(=O)N[C@@H](C)C(=O)N[C@@H](CCC(N)=O)C(=O)N[C@@H](Cc1ccccc1)C(=O)N[C@H](C(=O)N[C@@H](CC(=O)O)C(=O)N[C@@H](CCCCN)C(=O)N[C@@H](CC(=O)O)C(=O)N[C@@H](CCCCN)C(=O)N[C@@H](CC(=O)O)C(=O)N[C@@H](CC(N)=O)C(=O)N[C@H](C(=O)N[C@@H](C)C(=O)N1CCC[C@H]1C(=O)N1CCC[C@H]1C(=O)N[C@H](C(=O)N[C@@H](CC(N)=O)C(=O)N[C@H](C(=O)NCC(=O)N[C@@H](CO)C(=O)N[C@@H](CC(N)=O)C(=O)NCC(=O)N1C[C@H](O)C[C@H]1C(N)=O)C(C)C)[C@@H](C)O)C(C)C)[C@@H](C)O` [SEQ ID NO: 3] ({C20 diacid-γGlu}-KCNTATCTVQRLAEQIAQFTDKDKDNVAPPTNVGSNG[Hyp]-NH2; disulfide 2-7), the EC50 in data set [3] is 14 nM. In data set [4], the Deamidation is 97% and the Isomerization was 5%. Moreover, the fibrillation result in data set [1] (previously shown) is on record as “no fibrillation”. Also, in data set [5], the EC50 was > 5000 nM. Further, the “Dimerization and HMWP formation” value in data set [6] was determined as 12%. In data set [2], the Fibril formation result is on record as “No”.

B1: polypeptide KCLTATCTVARLAEQIAQFTDKDKENVAPPTAVGSAG[Hyp] (SEQ ID NO: 4) (peptide)
peptide: {C20 diacid-γGlu}-KCLTATCTVARLAEQIAQFTDKDKENVAPPTAVGSAG[Hyp]
modifications: bridge 2-7 via ‑S‑CH2‑S‑; also: C-terminal generally amidated (-CONH2) per the definitions
Regarding B1, in data set [7], the “hAMY3R EC50 (nM), cAMP accumulation” value came out at 0.009 nM. In addition, the “hAM1R EC50 (nM), cAMP accumulation” value in data set [8] was > 5000 nM.
The corresponding values for {C20 diacid-γGlu}-KCNTATCTVQRLAEQIAQFTDKDKDNVAPPTNVGSNG[Hyp] (disulfide 2-7; also: C-terminal generally amidated (-CONH2) per the definitions) [reference polypeptide KCNTATCTVQRLAEQIAQFTDKDKDNVAPPTNVGSNG[Hyp] (SEQ ID NO: 3)] are 0.014 nM and > 5000 nM.
Turning to KCNTATCATQRLANFLVHSSNNFGAILSSTNVGSNTY-NH2 (disulfide 2-7) [human amylin hAMY1-37], the “hAMY3R EC50 (nM), cAMP accumulation” value in data set [7] was 0.01 nM. The “hAM1R EC50 (nM), cAMP accumulation” value in data set [8] is > 5000 nM.
